Patent US11980633B2, “Method for treating cancer using a combination of DNA-damaging agents and DNA-PK inhibitors” (Vertex Pharmaceuticals Incorporated, priority 2016, dated 2024)

System: primary human endometrial tumors (dissociated cells)
Test: Tumor Chemosensitivity Assay (TCA): Compound B-2 with doxorubicin, primary endometrial tumors, viability after 6 days, Bliss
Type: cell-based
Protocol: Specifically, one study described the combination of Compound B-2 and doxorubicin hydrochloride. In this study, a panel of primary human ovarian and endometrial tumors was dissociated and treated with Compound B-2 to determine the effectiveness of this selective DNA-PK inhibitor to enhance the activity of doxorubicin.
In both studies, cell viability was assessed after 6 days in culture. Statistical analysis of the combination matrix was performed to assess whether synergy, additivity, or antagonism of the combination treatments were observed.
Materials: Primary patient samples (See Tables 16 and 17, below) were excised from mice when they reached 500 mg to 1000 mg in size and processed immediately, or after overnight shipment. Tumors were serially passaged by subcutaneous implantation of 50 mg to 150 mg fragments into the flanks of immunocompromised (nude) mice. Tumors were used within the first 5 or 7 passages.
Tumor Chemosensitivity Assay (TCA): Primary tumor samples were grown and serially passaged in immunocompromised mice. Tumors were mechanically dissociated into small fragments (1 mm to 2 mm) with scalpels in phosphate buffered saline (PBS or RPMI) and centrifuged at 200×g for 5 minutes at room temperature in 50 mL centrifuge tubes. […] Cells were diluted in Trypan blue, and viable cells that excluded the dye were counted. […]

**Q.** Which results are given for `[2H]c1nc(C)nc([2H])c1-c1cc(NC[C@@H](C)c2cccc3c(C(=O)NC)ccnc23)ncn1` [Compound B-2]?
**A.** Average Bliss score (tumor ENX001 (Endometrial)): 6; Average Bliss score (tumor ENX005 (Endometrial)): 21
